Assay results published in ChEMBL document CHEMBL2429754, “Design of novel focal adhesion kinase inhibitors using 3D-QSAR and molecular docking” (Med Chem Res, 2013).

Tested on: 4T1
Test: Induction of apoptosis in mouse 4T1 cells after 72 hrs using propidium iodide staining byflow cytometry analysis
Assay type: functional, cell-based
Conditions: 4T1, 72 h

## CNC(=O)c1ccccc1Nc1cc(Nc2ccc(N3CCOCC3)cc2OC)ncc1C(F)(F)F
  IC50: 100 nM
